Data from patent US5386832A, “Liver function breath test using aromatic amino acids” (New England Deaconess Hospital, priority 1993, dated 1995).
“And” between values parts separate entries of the source, which are not always exact repeats. Equal entries are not always repeated.

Test system: liver function
Assay: breath test: oral 13C-phenylalanine, labeled CO2 in expired breath
Assay type: in vivo, patient
Conditions: 100 mg oral; for maximum percent dose oxidized within 10 minutes / cumulative percent dose oxidized: group mean; for cumulative percent dose oxidized: 1 hr; for Max. % Dose Oxidized/10 min. / Cumulative 1 hr % Dose Oxidized: overnight fast; for Max. % Dose Oxidized/10 min.: breath every ten minutes for one hour; for Cumulative 1 hr % Dose Oxidized: over one hour
Text: All of the participants in the test are first required to fast overnight. This minimizes metabolic effects of meal absorption and the contribution of endogenous label appearing in the breath from natural levels of the endogenous isotope in the diet. While the preferred isotope for use in the test is ^13 C, other carbon isotopes (or even nitrogen isotopes) could be used. At least two baseline breath samples are collected and the mean isotope value in these samples is used as a background. This background is subtracted from the ^13 C levels determined following isotopic administration in order to obtain the change in ^13 C level.
All breath samples, both those collected prior to administration of the isotope and those after administration, are collected with a commercially available breath sampler such as a Quintron AlveoSampler. These samplers have a mouthpiece and a collection bag with a one-way valve there between. The breath samples are trapped in a syringe and the contents of the syringe are injected into a […] evacuation tube such as a Exetainer tube.
In the preferred mode of the invention, ^13 C-phenylalanine is used as the isotope tracer. One hundred mg doses of L-1-^13 C-phenylalanine are dissolved in 50 ml of water and the dose is administered orally. The dose bottle is washed with another 50ml of water and the wash is administered to the patient to make sure that all the phenylalanine was released from the dose bottle. Although intravenous or intramuscular administration of the isotope tracer could be used, the oral dose acts sufficiently and is much easier to administer.
Breath samples are collected every ten minutes for one hour after dosage. The amount of labeled isotope is measured using an isotope ratio mass spectrometer such a Europa Scientific Gas Isotope Ratio Mass Spectrometer (Europa Scientific, Inc., Cincinnati, Ohio). The ratio of ^13 C-CO2 to ^12 C-CO2 (mass ratio 45:44) is measured and compared to a reference CO2 tank. The reference CO2 is calibrated to the international PDB standard and the amount of labeled ^13 C is determined by the following formula
The mean Atom % ^13 C values are subtracted to determine the Atom % Excess ^13 C. The % Dose Oxid (or percent dose oxidized) is calculated from formulas 2 and 3.
Total ^13 C Excreted[…]%^13 C(from AUC)×5×(time in
min.)×Body Surface Area (m^2) (2)
% Dose Oxid=Total ^13 C Excreted/Dose (mmoles)×100% (3)
Two groups of subjects were used to test the efficacy of the present system. The first group contained 16 normal subjects while the second had 12 patients with various levels of liver disease.

[1] = 12 patients with liver disease, P<0.05 vs control
[2] = control group, 16 normal subjects, P<0.05 vs patients
[3] = individual control (normal) subjects 1-16
[4] = individual patients 17-28 with liver disease

N[C@@H](Cc1ccccc1)[13C](=O)O [L-1-^13 C-phenylalanine]
maximum percent dose oxidized within 10 minutes [1]: 0.50±0.27% | cumulative percent dose oxidized [1]: 1.82±0.93% | maximum percent dose oxidized within 10 minutes [2]: 2.15±0.84% | cumulative percent dose oxidized [2]: 7.62±2.87% | Max. % Dose Oxidized/10 min. [3]: 2.46% and 4.53% and 1.48% and 1.57% and 2.81% and 2.82% and 1.20% and 2.31% and 1.05% and 1.65% and 2.19% and 2.37% and 2.60% and 2.11% and 1.75% | Cumulative 1 hr % Dose Oxidized [3]: 8.56% and 15.53% and 3.96% and 6.52% and 7.14% and 9.86% and 11.12% and 3.78% and 7.34% and 4.44% and 6.21% and 7.78% and 7.71% and 7.50% and 7.57% and 6.83% | Max. % Dose Oxidized/10 min. [4]: 0.43% and 0.62% and 0.36% and 0.93% and 0.49% and 0.17% and 0.38% and 0.58% and 1.09% and 0.46% | Cumulative 1 hr % Dose Oxidized [4]: 2.16% and 2.81% and 1.25% and 2.00% and 1.59% and 0.51% and 1.29% and 1.46% and 0.61% and 2.22% and 3.88% and 2.02%
